Each structure is given as a SMILES string.

Turning to `COCc1cnn(-c2c(Cl)cc(C(F)(F)F)cc2Cl)n1`, the melting point lay in the range of 32 to 33 °C.
The result for `CC(=O)Nc1ccc2sc3ccc(Br)cc3c(=O)c2c1` reads 219 to 222 °C; that for `CC(C)(C)S(=O)(=O)CC(Cc1ccccc1)C(=O)O` (stereo not given), 147 to 148 °C; that for `O=C(Oc1ccccc1)[C@H]1O[C@@H]1C1CCCCC1`, 59 to 60 °C.
The result for `Cc1cc(COc2ccc(S(=O)(=O)NC[C@@H](C(=O)NO)N3CCN(Cc4ccc(C(F)(F)F)cc4)CC3)cc2)c2ccccc2n1` reads 148 °C; that for `COC1CCN(c2cc(NC(=O)OC(C)(C)C)c(NC(=O)CC(=O)c3cccc(C#N)c3)cc2C#Cc2ccccc2)CC1`, 97 to 100 °C; that for `CN(C)CCCc1nc2ccccc2[nH]1`, 117 to 119 °C.
The result for `CC[C@H]1[C@@H](N)CN1c1cc2c(cc1F)c(=O)c(C(=O)O)cn2C1CC1` (relative stereo) reads 236 to 237 °C; that for `CNC(=O)n1nc(Oc2ccc(C(F)(F)F)cc2[N+](=O)[O-])cc1C`, 70 to 72 °C.
Molecule `NS(=O)(=O)c1ccc(N2N=C(C(F)(F)F)CC2c2c[nH]c3ccccc23)cc1` (stereo not given) gave a melting point of 138 to 140 °C.
In the case of `COc1cc(C(=O)N[C@H]2CCNC2)ccc1Nc1ncc2c(n1)N(C1CCCCC1)CC(F)(F)C(=O)N2C`, the melting point was in the range of 195 to 198 °C.
On to `CNC(=O)CCC(=O)c1ccccc1`, for which the melting point was in the range of 80 to 82 °C.
In the case of `O=C(CC1c2cc(Cl)ccc2S(=O)(=O)N1c1ccccc1)NO` (stereo not given), the melting point fell in the range of 192 to 194 °C.
With `CCOC(=O)c1cnc(Nc2cccc([N+](=O)[O-])c2)[nH]c1=O`, the melting point is 226 to 228 °C.
`Cc1ccc(S(=O)(=O)ON=C2CCCc3c2ccc(OCc2ccccc2)c3N(C)C(=O)OCc2ccccc2)cc1`: the melting point fell in the range of 158 to 160 °C.
The result for `Clc1nnc(Nc2cc(CN3CCCC3)cc(CN3CCCC3)c2)c2ccccc12` reads 180 to 183 °C; that for `CN(C1CCCCC1)S(=O)(=O)c1ccc(Cn2cnc3ccccc32)cc1`, 191 to 193 °C; that for `Cc1ccc(N(Cc2ccc(N(C)C)cc2)C(=O)Nc2c(C(C)C)cccc2C(C)C)cc1`, 124 to 125 °C.
As for `COc1ccc(-c2cc(OC)c(OC)cc2[N+](=O)[O-])cc1OC`, the figure is 149 to 151 °C.
The result for `COc1ccc2c(CC(=O)O)c(C(=O)c3cc(C)ccn3)[nH]c2c1` reads 204 °C.
With `CCCCOCCOc1ccc(-c2ccc3c(c2)C=C(C(=O)O)CCN3c2ccccc2)cc1`, the melting point fell in the range of 129 to 131 °C.
As for `O=C(NCc1ccccc1)c1cnc(-c2ccccc2)nc1S`, the figure is 189 to 193 °C; as for `N#Cc1ccc(Oc2ccc3c(c2)CCNC3=O)nc1`, 192 to 194 °C.
As for `OC(CCl)(Cc1ccccc1)c1ccc(-c2ccccc2)cc1` (stereo not given), the melting point was found to be 96 °C.
The result for `CC(=S)N[C@@H]1c2cc(C#N)ccc2OC(C)(C)[C@H]1O` (relative stereo) reads 176 to 180 °C.
As for `O=C(O)CCCCc1ccc2ccccc2c1OCc1ccccc1`, the figure is 70 to 77 °C; as for `Cc1oc(-c2ccccc2)nc1CCCCCC(CO)CO`, 71 to 74 °C.
As for `CN(C)c1ccccc1CC(=N)N1C[C@@H]2C(=O)CCC(c3ccccc3)(c3ccccc3)[C@@H]2C1`, the figure is 188 °C; as for `CCCc1c(OCCOc2ccc(C(=O)NCCCCc3cccnc3)cc2)ccc(C(C)=O)c1O`, 93 °C; as for `C[C@@H](n1cc(-c2ccccc2)nn1)[C@](O)(Cn1cncn1)c1ccc(F)cc1F`, 148 to 149 °C.
On to `CC(C)(C)OC(=O)Nc1ccc(C#Cc2ccccn2)cc1[N+](=O)[O-]`, for which the melting point lay in the range of 142 to 144 °C.
The result for `S=C1Nc2cc(Br)ccc2-n2ccc3cccc1c32` reads 214 to 215 °C.
As for `N#Cc1ccc(N2C=CC(N)=C([N+](=O)[O-])C2)cc1`, the figure is 210 to 211 °C; as for `CC1Cc2c(n(-c3ccc(Cl)cc3)c3ncccc3c2=O)O1` (stereo not given), 227 to 228 °C.
In turn, `CN(CC(=O)[C@H](Cc1ccccc1)NC(=O)NC1CCCCC1)C(=O)N1CCC[C@H]1C(=O)O` had a melting point of 75 to 110 °C.
`O=c1cc(-c2ccc(O)c(Br)c2)oc2ncccc12` came in with a melting point of 267 to 272 °C.
For `CCOc1cc(C(=O)O)on1`, the melting point fell in the range of 210 to 213 °C.
The result for `O=C1Cc2cccc(Sc3ccccc3Cl)c2N1` reads 178 to 180 °C; that for `Cc1noc(-c2ncn3c2[C@@H]2CCN2C(=O)c2c(Cl)cccc2-3)n1`, 239 to 240 °C.
The result for `COc1cc(CC(=O)O)c(C(=O)O)cc1OC` reads 217 to 219 °C.
Turning to `O=COCC#Cc1cc(F)c2ncc(C(=O)NCc3ccc(Cl)cc3)c(O)c2c1`, the melting point fell in the range of 231 to 233 °C.
The result for `COCc1cc2ccccc2c(Oc2ccc(/C=C/C(=O)O)cc2)c1-c1ccccc1` reads 76 to 79 °C.
As for `O=[N+]([O-])c1ccc(OCC=CCBr)c([N+](=O)[O-])c1`, the figure is 55 to 57 °C.
The molecule `Cc1cc(-c2nnn[nH]2)cc2c(=O)c3cccnc3oc12` gave a melting point of 290 to 291 °C.
As for `Cc1ncn(-c2ccc(C(=O)N3Cc4cccn4Cc4ccccc43)c(C(F)(F)F)c2)n1`, the figure is 148 to 150 °C; as for `COc1cc(CCCl)cc2c1OCO2`, 67 to 68 °C.
The result for `COc1ccc(COC2CC(n3cc(C(F)(F)F)c(=O)n(C(=O)c4ccccc4)c3=O)OC2CO)cc1` (stereo not given) reads 152 to 153 °C; that for `ClCc1coc(-c2ccc(Br)o2)n1`, 90 to 92 °C; that for `CS(=O)(=O)c1ccc(C(=O)c2ccc(F)cc2)cc1`, 136 °C.
The result for `CC(=O)C(CC(C)C)NC(=O)CCOc1ccc([N+](=O)[O-])cc1` (stereo not given) reads 101 to 102 °C.
In turn, `O=C(Cc1ccnc(Br)c1)c1ccccn1` returned a melting point of 111 °C.
The molecule `COC(=O)c1sc(-c2ccc(F)cc2)cc1-c1nnn(C)n1` gave a melting point of 132 °C.
As for `Clc1ccc2c(c1)N=Cc1ccccc1O2`, the figure is 73 to 73.5 °C.
The result for `N#Cc1ccc2cc(Cc3cc4ccc(C#N)cc4o3)oc2c1` reads 207 to 209 °C.
`CCCCOC(=O)NS(=O)(=O)/C=C/c1cc(OCCCC)nn1Cc1ccc(Cl)cc1Cl`: the melting point fell in the range of 137 to 138 °C.
With `N#Cc1cc([N+](=O)[O-])c2sc(N3CCC4(CC3)OCCO4)nc(=O)c2c1`, the melting point is 217 to 220 °C.
The result for `Clc1ccn2cc(Cl)nc2c1` reads 153 to 154 °C; that for `CC(C)c1ccc(-c2cc(C(=O)O)c(-c3cccc(C(=O)O)c3)o2)cc1`, 236 to 239 °C; that for `CCOc1cc(Oc2ccc(S(C)(=O)=O)nc2)cc2cc(C3=NCC(CCO)S3)[nH]c12` (stereo not given), 147 to 148 °C.
Molecule `CS(=O)(=O)OCCc1cc(Nc2ncc3c(n2)-c2ccccc2[C@H](c2ccccc2F)C3)ccc1F` returned a melting point of 99 to 100 °C.
Turning to `CCC(CC)(CC(=O)Nc1ccc2ccc(OCc3ccc4ccc(F)cc4n3)cc2c1)C(=O)O`, the melting point was in the range of 164 to 166 °C.
As for `COc1cccc(S(=O)(=O)c2ccc3c(c2)[C@@H](Nc2ccnc(Cl)n2)[C@](C)(O)C(C)(C)O3)c1`, the figure is 228 to 230 °C.
`CCCCCc1ccc(C=Cc2cc3sc(C=Cc4ccc(CCCCC)cc4)cc3s2)cc1` gave a melting point of 320 °C.
`CCc1ccc2c(c1)C1CN(CCCC(=O)c3ccc(F)cc3)CCC1N2` (stereo not given) showed a melting point of 192 to 195 °C.
The result for `COc1cc(C2C3=C(COC3=O)Nc3ccc4cn[nH]c4c32)ccc1O` (stereo not given) reads 238 to 240 °C; that for `COc1cc2c(cc1OC)CC(N)CC2` (stereo not given), 83 to 86 °C.
As to `CC(C)(C1=NOS(=O)N1)c1ccc2ccccc2c1` (stereo not given), the melting point lay in the range of 146 to 147 °C.
The result for `Cc1sc(CO)cc1CC#N` reads 66 to 68 °C; that for `CCCc1nc2c(C)cnc(C(=O)OC)c2n1Cc1ccc(-c2ccccc2-c2nnnn2C(c2ccccc2)(c2ccccc2)c2ccccc2)cc1`, 239 to 242 °C.
As for `N#Cc1cccc(COc2ccc3ccccc3c2)c1`, the figure is 60 to 61 °C; as for `Cc1ccc(Cl)cc1N1C(=O)C(=O)N(C)C1=S`, 171 to 173 °C.
The result for `Cn1cccc1CC(=O)O` reads 97 to 100 °C; that for `COc1cc(-c2nc(N)nn2CCC2CCCCC2)c(OC)cc1C`, 136 to 137 °C.
As for `CCCC1(Br)Cc2c(c(C)c(C)c3oc(C(=O)O)cc23)C1=O` (stereo not given), the melting point is 233 °C.
The result for `NC(=CC(=O)N1CCn2c(nnc2C(F)(F)F)C1)Cc1cc(F)c(F)cc1F` reads 271 °C; that for `Cc1noc(C)c1Cn1cc(N2C(=O)c3ccccc3C2=O)cn1`, 170 to 171 °C.
As for `C/C(=C\C(C)O)c1ccc(C2CCCCCC2)cc1` (stereo not given), the figure is 64 to 65 °C; as for `CN1CSC(=Cc2cc(C(C)(C)C)c(O)c(C(C)(C)C)c2)C1=O`, 142 to 144 °C.
Molecule `Cc1ccc2[nH]c(C)c(C(=O)c3ccc(Cl)c(S(N)(=O)=O)c3)c2c1` returned a melting point of 248 to 250 °C.
The molecule `CCOC(=O)NC(CCc1ccccc1)P(C)(=O)O` (stereo not given) had a melting point of 119 to 125 °C.
As for `CN(C)C=Nc1ccncc1O`, the figure is 121 to 123 °C.
In the case of `S=C=NCc1ccc(Cl)nc1`, the melting point was found to be 22 °C.
`CN1C(C)(C)CC(O)CC1(C)C` came in with a melting point of 70 to 71 °C.
Molecule `Nc1nc2c(s1)CC(CN1CCN(c3ccccn3)CC1)CC2` (stereo not given) registered a melting point of 177 to 179 °C.
The molecule `CCOC(=O)c1c[nH]nc1OC(C)C` showed a melting point of 55 to 56 °C.
The result for `C#Cc1cc2ccccc2[nH]1` reads 64 to 65 °C; that for `Cc1nc2c(n1C1CC1)CCCC2=O`, 132 °C.
As for `Cc1cccc(-n2c(-c3cc(-c4ccccc4)c(N4CCOCC4)s3)nc3ccccc3c2=O)c1`, the melting point was 194 to 196 °C.
Take `CCCN(Cc1ccc(-c2ccccc2-c2nc(=O)o[nH]2)cc1)c1nc(C)ncc1C(=O)O`: the melting point was in the range of 182 to 186 °C.
The molecule `CCCC1CCC(c2ccc(-c3cc(F)c(C(F)(F)Oc4cc(F)c(C(F)(F)F)c(F)c4)c(F)c3)c(F)c2)OC1` (stereo not given) yielded a melting point of 95 °C.

For the origin of these results see a melting point compilation (Tetko et al.; mined from patent text by program, amines drawn as free bases though some values may be those of a salt).
